Where a name gives a salt, the structure may show the parent alone. The source made the active and inactive calls. For most assays here, no stated cut-off is given here; in the data, actives have a measured Kd and inactives only a lower limit.
What was measured:
[1] = biological target: BMP-2-inducible protein kinase (Homo sapiens, UniProt Q9NSY1)
[2] = biological target: Cyclin-dependent kinase 17 (Homo sapiens, UniProt Q00537)
[3] = biological target: Dual specificity tyrosine-phosphorylation-regulated kinase 1A (Homo sapiens, UniProt Q13627)
[4] = biological target: Mitogen-activated protein kinase kinase kinase 1 (Homo sapiens, UniProt Q13233)
Mitogen-activated protein kinase kinase kinase 1, sequence (Q13233 whole entry, canonical isoform): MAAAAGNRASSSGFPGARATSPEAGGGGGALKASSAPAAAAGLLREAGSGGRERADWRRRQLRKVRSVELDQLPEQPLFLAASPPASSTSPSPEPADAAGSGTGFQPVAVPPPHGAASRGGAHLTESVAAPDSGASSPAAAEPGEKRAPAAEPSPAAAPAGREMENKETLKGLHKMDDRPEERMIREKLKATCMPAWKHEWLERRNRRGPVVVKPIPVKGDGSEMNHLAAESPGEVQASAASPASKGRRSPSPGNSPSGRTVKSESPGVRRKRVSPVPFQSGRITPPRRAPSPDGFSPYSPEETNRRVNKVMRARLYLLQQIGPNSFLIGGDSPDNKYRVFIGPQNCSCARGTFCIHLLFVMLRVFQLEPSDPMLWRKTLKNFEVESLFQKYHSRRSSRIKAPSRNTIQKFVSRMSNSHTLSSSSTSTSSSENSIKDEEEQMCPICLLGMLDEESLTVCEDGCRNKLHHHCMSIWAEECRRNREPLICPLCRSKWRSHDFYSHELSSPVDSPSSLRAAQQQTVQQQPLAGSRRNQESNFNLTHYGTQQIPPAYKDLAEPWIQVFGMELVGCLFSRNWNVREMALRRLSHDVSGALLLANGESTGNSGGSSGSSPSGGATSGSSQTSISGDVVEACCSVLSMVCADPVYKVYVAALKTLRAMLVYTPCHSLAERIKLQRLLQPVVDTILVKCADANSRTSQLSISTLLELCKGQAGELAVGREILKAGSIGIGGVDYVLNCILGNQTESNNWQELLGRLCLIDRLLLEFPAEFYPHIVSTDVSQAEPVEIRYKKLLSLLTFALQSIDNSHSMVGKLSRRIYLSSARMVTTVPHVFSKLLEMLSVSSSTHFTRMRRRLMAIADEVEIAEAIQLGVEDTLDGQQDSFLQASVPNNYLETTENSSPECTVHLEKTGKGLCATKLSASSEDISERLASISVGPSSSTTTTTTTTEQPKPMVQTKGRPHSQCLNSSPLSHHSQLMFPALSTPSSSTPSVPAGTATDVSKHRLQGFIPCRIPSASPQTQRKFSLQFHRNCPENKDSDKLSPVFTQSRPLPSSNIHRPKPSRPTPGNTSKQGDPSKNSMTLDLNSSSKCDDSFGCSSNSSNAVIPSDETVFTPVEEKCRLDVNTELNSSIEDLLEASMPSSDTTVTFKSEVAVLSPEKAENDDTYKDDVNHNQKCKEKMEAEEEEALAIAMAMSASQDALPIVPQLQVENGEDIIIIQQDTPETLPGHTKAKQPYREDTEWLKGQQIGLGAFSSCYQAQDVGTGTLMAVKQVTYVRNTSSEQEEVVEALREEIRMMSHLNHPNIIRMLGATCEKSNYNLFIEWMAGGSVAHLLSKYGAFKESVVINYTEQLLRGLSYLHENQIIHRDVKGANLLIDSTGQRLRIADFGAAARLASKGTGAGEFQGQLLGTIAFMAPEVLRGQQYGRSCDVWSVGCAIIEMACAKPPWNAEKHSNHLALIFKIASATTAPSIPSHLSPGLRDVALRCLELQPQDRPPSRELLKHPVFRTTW

[5] = biological target: S-adenosylmethionine synthase isoform type-2 (Homo sapiens, UniProt P31153)
S-adenosylmethionine synthase isoform type-2, sequence (P31153 whole entry, canonical isoform): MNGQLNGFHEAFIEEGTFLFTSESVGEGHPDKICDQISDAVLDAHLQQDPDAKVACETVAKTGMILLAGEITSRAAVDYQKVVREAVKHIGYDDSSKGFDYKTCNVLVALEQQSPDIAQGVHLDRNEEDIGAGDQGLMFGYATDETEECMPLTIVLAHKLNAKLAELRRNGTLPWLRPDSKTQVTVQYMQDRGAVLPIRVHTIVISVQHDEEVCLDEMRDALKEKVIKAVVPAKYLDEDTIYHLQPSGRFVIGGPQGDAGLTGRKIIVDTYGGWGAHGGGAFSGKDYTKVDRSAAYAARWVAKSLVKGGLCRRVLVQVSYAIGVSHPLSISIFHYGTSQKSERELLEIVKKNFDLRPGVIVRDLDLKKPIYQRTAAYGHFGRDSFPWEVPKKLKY

[6] = biological target: Serine/threonine-protein kinase pim-1 (Homo sapiens, UniProt P11309)
[7] = biological target: Rho-associated protein kinase 2 (Homo sapiens, UniProt O75116)
[8] = biological target: Ribosomal protein S6 kinase alpha-1 (Homo sapiens, UniProt Q15418)
[9] = biological target: T1, Exosome RNA helicase MTR4 (Homo sapiens, UniProt P42285)
T1 sequence (P42285 whole entry): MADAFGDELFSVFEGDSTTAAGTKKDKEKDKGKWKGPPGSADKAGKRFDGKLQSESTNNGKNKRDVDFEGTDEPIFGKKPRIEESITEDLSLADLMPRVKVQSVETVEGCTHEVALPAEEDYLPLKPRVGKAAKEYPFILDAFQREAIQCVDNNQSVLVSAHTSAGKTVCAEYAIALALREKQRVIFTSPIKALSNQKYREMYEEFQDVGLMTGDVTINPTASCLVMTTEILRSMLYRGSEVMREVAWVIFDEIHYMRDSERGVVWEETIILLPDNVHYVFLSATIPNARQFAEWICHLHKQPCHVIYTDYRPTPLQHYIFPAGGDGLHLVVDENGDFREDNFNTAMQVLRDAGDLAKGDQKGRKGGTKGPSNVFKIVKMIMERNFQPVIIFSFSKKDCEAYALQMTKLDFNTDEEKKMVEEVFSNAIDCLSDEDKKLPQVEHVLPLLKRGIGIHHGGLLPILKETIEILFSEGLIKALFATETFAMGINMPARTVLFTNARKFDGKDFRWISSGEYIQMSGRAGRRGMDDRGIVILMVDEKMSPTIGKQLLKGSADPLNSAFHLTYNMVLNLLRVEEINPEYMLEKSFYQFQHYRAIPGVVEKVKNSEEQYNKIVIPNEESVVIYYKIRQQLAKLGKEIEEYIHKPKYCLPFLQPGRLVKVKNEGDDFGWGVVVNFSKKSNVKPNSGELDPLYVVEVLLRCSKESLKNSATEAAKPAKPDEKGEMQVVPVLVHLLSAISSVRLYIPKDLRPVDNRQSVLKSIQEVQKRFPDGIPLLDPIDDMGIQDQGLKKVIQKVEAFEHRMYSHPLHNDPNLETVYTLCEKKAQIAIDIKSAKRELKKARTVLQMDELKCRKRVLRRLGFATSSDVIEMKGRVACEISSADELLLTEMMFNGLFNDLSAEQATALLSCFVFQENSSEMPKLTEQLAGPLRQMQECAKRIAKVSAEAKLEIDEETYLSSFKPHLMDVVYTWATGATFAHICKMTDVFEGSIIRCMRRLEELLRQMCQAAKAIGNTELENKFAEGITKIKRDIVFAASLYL

[10] = biological target: STE20-like serine/threonine-protein kinase (Homo sapiens, UniProt Q9H2G2)
STE20-like serine/threonine-protein kinase, sequence (Q9H2G2 whole entry): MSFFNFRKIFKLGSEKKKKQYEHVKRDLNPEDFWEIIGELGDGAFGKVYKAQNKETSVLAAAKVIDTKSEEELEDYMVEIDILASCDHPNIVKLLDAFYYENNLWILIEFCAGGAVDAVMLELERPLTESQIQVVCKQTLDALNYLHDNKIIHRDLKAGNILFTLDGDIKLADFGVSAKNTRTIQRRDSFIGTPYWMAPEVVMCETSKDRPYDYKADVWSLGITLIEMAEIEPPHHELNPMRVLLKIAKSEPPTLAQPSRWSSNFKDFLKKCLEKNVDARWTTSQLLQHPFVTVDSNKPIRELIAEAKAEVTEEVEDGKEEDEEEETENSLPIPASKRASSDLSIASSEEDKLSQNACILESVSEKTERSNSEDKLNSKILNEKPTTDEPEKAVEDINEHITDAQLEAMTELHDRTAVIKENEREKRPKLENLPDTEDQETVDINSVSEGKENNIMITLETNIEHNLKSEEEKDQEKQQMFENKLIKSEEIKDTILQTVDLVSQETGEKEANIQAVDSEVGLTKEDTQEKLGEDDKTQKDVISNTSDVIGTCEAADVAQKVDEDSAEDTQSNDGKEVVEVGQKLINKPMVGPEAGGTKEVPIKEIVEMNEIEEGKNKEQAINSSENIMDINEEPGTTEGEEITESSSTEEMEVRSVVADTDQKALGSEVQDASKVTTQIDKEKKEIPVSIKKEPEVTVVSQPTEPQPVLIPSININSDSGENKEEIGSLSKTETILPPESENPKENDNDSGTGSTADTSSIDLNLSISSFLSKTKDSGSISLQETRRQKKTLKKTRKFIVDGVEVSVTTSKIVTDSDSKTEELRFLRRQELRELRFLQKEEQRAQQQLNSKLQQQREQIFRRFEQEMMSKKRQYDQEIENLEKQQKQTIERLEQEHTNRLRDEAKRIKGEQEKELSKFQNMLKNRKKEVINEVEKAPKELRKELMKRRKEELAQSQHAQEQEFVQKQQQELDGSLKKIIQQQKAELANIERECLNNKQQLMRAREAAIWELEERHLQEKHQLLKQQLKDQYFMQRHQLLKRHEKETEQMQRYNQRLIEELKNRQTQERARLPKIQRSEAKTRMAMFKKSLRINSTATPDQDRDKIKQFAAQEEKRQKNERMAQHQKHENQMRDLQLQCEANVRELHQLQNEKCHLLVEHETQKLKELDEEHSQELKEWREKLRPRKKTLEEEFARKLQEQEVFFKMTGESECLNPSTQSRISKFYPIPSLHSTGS

[11] = biological target: T2, Thyroid hormone receptor-associated protein 3 (Homo sapiens, UniProt Q9Y2W1)
T2 sequence (Q9Y2W1 whole entry): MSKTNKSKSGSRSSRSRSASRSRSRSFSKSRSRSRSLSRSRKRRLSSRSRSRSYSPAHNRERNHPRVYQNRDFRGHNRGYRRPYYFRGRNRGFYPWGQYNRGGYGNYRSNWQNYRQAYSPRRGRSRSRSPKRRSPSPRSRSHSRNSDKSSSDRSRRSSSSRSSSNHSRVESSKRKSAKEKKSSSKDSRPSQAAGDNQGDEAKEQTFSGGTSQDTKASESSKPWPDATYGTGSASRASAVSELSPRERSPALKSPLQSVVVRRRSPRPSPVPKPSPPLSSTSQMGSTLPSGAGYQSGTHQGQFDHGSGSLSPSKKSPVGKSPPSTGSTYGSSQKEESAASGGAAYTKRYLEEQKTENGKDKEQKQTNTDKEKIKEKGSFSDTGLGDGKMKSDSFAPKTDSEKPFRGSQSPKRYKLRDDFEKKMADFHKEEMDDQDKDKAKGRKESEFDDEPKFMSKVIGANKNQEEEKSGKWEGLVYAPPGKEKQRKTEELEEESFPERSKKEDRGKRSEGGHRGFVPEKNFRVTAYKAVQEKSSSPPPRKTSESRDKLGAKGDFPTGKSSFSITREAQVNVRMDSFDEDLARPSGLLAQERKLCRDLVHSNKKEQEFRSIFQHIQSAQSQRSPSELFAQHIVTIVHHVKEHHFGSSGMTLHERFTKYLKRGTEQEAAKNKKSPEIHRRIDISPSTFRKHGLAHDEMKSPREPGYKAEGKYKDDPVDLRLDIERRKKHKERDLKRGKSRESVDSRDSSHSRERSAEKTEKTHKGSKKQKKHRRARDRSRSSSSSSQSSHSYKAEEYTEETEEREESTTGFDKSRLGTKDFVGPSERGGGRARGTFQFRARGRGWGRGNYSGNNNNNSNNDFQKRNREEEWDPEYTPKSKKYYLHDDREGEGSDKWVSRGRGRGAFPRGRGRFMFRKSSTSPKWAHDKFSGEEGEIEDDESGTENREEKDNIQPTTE

[12] = biological target: T3, Phosphatidylinositol 5-phosphate 4-kinase type-2 alpha (Homo sapiens, UniProt P48426)
T3 sequence (P48426 whole entry): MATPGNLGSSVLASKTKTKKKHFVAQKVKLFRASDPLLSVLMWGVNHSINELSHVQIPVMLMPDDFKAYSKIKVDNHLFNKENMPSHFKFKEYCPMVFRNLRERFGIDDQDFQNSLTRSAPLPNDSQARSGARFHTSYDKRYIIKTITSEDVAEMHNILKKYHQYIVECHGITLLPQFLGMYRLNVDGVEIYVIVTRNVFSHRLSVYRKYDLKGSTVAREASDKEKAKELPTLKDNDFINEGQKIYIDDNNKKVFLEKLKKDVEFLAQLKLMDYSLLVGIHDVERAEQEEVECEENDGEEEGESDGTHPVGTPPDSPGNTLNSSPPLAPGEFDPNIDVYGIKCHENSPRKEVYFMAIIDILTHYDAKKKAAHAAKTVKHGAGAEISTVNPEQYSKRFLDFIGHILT

[13] = biological target: Phosphatidylethanolamine-binding protein 1 (Homo sapiens, UniProt P30086)
Phosphatidylethanolamine-binding protein 1, sequence (P30086 whole entry): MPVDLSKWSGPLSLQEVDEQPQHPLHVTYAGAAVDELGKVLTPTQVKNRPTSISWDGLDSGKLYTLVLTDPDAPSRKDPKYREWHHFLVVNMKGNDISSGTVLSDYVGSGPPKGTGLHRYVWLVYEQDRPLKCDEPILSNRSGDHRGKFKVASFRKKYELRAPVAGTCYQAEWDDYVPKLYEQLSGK

Cyclin-dependent kinase 17, sequence (Q00537 whole entry): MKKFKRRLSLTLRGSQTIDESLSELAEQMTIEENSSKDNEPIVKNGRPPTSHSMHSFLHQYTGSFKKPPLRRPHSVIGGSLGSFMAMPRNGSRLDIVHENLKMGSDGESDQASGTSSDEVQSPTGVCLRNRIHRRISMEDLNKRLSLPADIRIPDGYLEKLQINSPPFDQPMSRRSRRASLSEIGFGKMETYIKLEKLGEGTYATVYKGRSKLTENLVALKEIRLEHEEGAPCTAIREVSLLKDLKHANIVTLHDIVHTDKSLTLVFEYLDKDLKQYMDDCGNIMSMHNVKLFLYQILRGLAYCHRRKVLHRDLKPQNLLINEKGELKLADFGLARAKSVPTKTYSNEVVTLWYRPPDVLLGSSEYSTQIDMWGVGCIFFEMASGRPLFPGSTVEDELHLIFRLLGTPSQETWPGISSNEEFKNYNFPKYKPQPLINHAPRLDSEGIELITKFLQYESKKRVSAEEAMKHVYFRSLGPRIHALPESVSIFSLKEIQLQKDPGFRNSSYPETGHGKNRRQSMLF
BMP-2-inducible protein kinase, sequence (Q9NSY1 whole entry): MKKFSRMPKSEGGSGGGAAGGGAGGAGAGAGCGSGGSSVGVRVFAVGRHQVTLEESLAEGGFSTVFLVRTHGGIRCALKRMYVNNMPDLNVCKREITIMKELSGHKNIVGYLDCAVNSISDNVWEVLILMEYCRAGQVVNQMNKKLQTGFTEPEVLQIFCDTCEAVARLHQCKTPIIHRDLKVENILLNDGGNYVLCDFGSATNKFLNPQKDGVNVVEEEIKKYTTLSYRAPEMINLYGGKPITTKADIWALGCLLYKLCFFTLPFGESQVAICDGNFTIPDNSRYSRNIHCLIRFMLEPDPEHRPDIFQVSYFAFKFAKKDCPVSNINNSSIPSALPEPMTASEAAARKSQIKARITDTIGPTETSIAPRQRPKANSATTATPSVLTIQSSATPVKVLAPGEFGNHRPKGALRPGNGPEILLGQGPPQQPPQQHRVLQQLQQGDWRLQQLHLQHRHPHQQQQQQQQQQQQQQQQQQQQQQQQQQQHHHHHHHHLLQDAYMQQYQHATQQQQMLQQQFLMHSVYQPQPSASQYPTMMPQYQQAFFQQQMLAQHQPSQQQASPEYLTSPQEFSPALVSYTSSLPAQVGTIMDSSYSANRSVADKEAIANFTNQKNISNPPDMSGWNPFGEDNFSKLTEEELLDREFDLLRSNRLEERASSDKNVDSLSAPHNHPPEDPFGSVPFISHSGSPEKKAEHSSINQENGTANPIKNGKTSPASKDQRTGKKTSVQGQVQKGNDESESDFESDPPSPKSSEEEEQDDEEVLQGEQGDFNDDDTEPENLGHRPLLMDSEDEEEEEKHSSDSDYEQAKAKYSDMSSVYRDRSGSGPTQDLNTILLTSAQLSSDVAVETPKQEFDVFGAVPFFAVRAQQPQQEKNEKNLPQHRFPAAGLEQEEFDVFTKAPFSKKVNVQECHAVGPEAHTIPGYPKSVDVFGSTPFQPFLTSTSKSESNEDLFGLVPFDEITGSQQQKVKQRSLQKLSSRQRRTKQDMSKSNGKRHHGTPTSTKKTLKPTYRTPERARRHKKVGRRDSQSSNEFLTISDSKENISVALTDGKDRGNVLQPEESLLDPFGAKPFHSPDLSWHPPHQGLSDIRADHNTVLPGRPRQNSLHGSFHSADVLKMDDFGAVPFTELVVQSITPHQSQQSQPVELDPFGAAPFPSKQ

SMILES	Kd [1]	Kd [2]	Kd [3]	Kd [4]	Kd [5]	Kd [6]	Kd [7]	Kd [8]	Kd [9]	Kd [10]	Kd [11]	Kd [12]	Kd [13]
C[C@H]1CNCCCN1S(=O)(=O)c1cccc2cncc(F)c12	> 30 µM (inactive)	> 30 µM (inactive)	> 30 µM (inactive)	> 30 µM (inactive)	> 30 µM (inactive)	> 30 µM (inactive)	0.083 µM (active)	> 30 µM (inactive)	> 30 µM (inactive)	> 30 µM (inactive)	> 30 µM (inactive)	–	–
CCNC(=O)C#Cc1ccc2c(c1)NC(=O)/C2=C(\Nc1ccc(CN(C)C)cc1)c1ccccc1	> 30 µM (inactive)	> 30 µM (inactive)	> 30 µM (inactive)	> 30 µM (inactive)	> 30 µM (inactive)	> 30 µM (inactive)	> 30 µM (inactive)	0.799 µM (active)	> 30 µM (inactive)	1.49 µM (active)	> 30 µM (inactive)	> 30 µM (inactive)	–
CNC(=O)c1ccccc1Sc1ccc2c(/C=C/c3ccccn3)n[nH]c2c1 [AXITINIB]	–	–	–	–	> 30 µM (inactive)	–	–	–	> 30 µM (inactive)	–	> 30 µM (inactive)	> 30 µM (inactive)	> 30 µM (inactive)
Cc1cc(C(=O)NOCCO)c(Nc2ccc(I)cc2F)n(C)c1=O [AZD-8330]	> 30 µM (inactive)	> 30 µM (inactive)	> 30 µM (inactive)	> 30 µM (inactive)	–	> 30 µM (inactive)	> 30 µM (inactive)	> 30 µM (inactive)	> 30 µM (inactive)	> 30 µM (inactive)	> 30 µM (inactive)	> 30 µM (inactive)	–
CCS(=O)(=O)N1CCN(c2ccc(Nc3ncc(C(N)=O)c(NC4CC4)n3)cc2)CC1 [Cerdulatinib Hydrochloride]	0.0008 µM (active)	> 30 µM (inactive)	> 30 µM (inactive)	> 30 µM (inactive)	> 30 µM (inactive)	> 30 µM (inactive)	> 30 µM (inactive)	> 30 µM (inactive)	> 30 µM (inactive)	> 30 µM (inactive)	> 30 µM (inactive)	> 30 µM (inactive)	–
C[C@@H](Oc1cc(-n2cnc3ccc(CN4CCN(C)CC4)cc32)sc1C(N)=O)c1ccccc1C(F)(F)F [GSK-461364]	–	–	–	–	> 30 µM (inactive)	–	–	–	> 30 µM (inactive)	–	> 30 µM (inactive)	> 30 µM (inactive)	> 30 µM (inactive)
COc1ccc(S(=O)(=O)N(C(C)=O)c2ccccc2/C=C/c2cc[n+]([O-])cc2)cc1 [HMN-214]	> 30 µM (inactive)	> 30 µM (inactive)	> 30 µM (inactive)	> 30 µM (inactive)	> 30 µM (inactive)	> 30 µM (inactive)	> 30 µM (inactive)	> 30 µM (inactive)	> 30 µM (inactive)	> 30 µM (inactive)	> 30 µM (inactive)	> 30 µM (inactive)	–
CNC(=O)c1cccc2cc(Oc3ccnc4cc(OCC5(N)CC5)c(OC)cc34)ccc12 [LUCITANIB]	> 30 µM (inactive)	> 30 µM (inactive)	> 30 µM (inactive)	> 30 µM (inactive)	> 30 µM (inactive)	> 30 µM (inactive)	> 30 µM (inactive)	> 30 µM (inactive)	> 30 µM (inactive)	> 30 µM (inactive)	–	> 30 µM (inactive)	> 30 µM (inactive)
CN(C[C@@H]1COCCO1)S(=O)(=O)Nc1ccc2ccc3ncc(-c4cnn(C)c4)cc3c(=O)c2c1 [MK-2461]	> 30 µM (inactive)	> 30 µM (inactive)	> 30 µM (inactive)	> 30 µM (inactive)	> 30 µM (inactive)	> 30 µM (inactive)	> 30 µM (inactive)	> 30 µM (inactive)	> 30 µM (inactive)	> 30 µM (inactive)	–	> 30 µM (inactive)	> 30 µM (inactive)
Cc1[nH]c(/C=C2\C(=O)Nc3ccccc32)c(C)c1CCC(=O)O [ORANTINIB]	0.303 µM (active)	> 30 µM (inactive)	–	> 30 µM (inactive)	–	–	–	–	> 30 µM (inactive)	–	> 30 µM (inactive)	> 30 µM (inactive)	–
CC(=O)NCC(=O)N1[C@@H]2CC[C@H]1c1ccc(Nc3ncc(C(F)(F)F)c(NC4CCC4)n3)cc12 [PF-03814735]	0.015 µM (active)	> 30 µM (inactive)	–	2.18 µM	> 30 µM (inactive)	–	–	2.41 µM (active)	> 30 µM (inactive)	–	> 30 µM (inactive)	> 30 µM (inactive)	–
CNC(=O)c1cc(Oc2ccc(NC(=O)Nc3cc(C(C)(C)C)nn3-c3ccc4ncccc4c3)c(F)c2)ccn1 [REBASTINIB]	> 30 µM (inactive)	0.007 µM (active)	> 30 µM (inactive)	> 30 µM (inactive)	–	> 30 µM (inactive)	> 30 µM (inactive)	> 30 µM (inactive)	> 30 µM (inactive)	> 30 µM (inactive)	> 30 µM (inactive)	> 30 µM (inactive)	–
N#CC[C@H](C1CCCC1)n1cc(-c2ncnc3[nH]ccc23)cn1 [RUXOLITINIB]	–	–	–	–	> 30 µM (inactive)	–	–	–	> 30 µM (inactive)	–	> 30 µM (inactive)	> 30 µM (inactive)	> 30 µM (inactive)
CN1CCN(CCOc2cc(OC3CCOCC3)c3c(Nc4c(Cl)ccc5c4OCO5)ncnc3c2)CC1 [SARACATINIB]	> 30 µM (inactive)	> 30 µM (inactive)	> 30 µM (inactive)	> 30 µM (inactive)	> 30 µM (inactive)	> 30 µM (inactive)	> 30 µM (inactive)	> 30 µM (inactive)	> 30 µM (inactive)	–	> 30 µM (inactive)	> 30 µM (inactive)	–

Reference: ChEMBL document CHEMBL3991601, “The target landscape of clinical kinase drugs” (Science, 2017)
